Legend:
[1] = system: mouse; conditions: Subchronic oral toxicity in rodents, b6c3f1, Feed, dose end: 13 week, group: systemic
[2] = system: mouse; conditions: Carcinogenicity, b6c3f1, Oral, Feed, dose end: 24 month, group: systemic
[3] = system: dog; conditions: Chronic toxicity, beagle, Oral, Feed, dose end: 1 year, group: systemic
[4] = system: rat; conditions: Combined chronic toxicity/carcinogenicity; fischer; Oral; Feed; dose end: 2 year; group: systemic; systemic / pathology microscopic / kidney / dilatation + systemic / pathology microscopic / kidney / hyperplasia + systemic / pathology …
[5] = system: rat; conditions: Subchronic oral toxicity in rodents, fischer, Feed, dose end: 13 week, group: systemic
[6] = system: rat; conditions: Prenatal developmental toxicity study, sprague dawley, Oral, Gavage/Intubation, dose end: 15 GD
[7] = system: rat; conditions: Subchronic oral toxicity in rodents, sprague dawley, Feed, dose end: 90 day, group: systemic, systemic / clinical chemistry / cholesterol / cholesterol + systemic / in life observation / body weight / body weight + systemic / in life …
[8] = system: rabbit; conditions: Prenatal developmental toxicity study, new zealand white, Oral, Gavage/Intubation, dose end: 28 GD
[9] = system: dog; conditions: Subchronic oral toxicity in nonrodent, beagle, Feed, dose end: 103 day, group: systemic
[10] = system: rat; conditions: Multigenerational reproductive toxicity study, sprague dawley, Oral, Feed, dose end: 2 generation
[11] = systemic / organ weight / brain / relative to body weight + systemic / organ weight / kidney / absolute
[12] = systemic / organ weight / brain / relative to body weight + systemic / organ weight / kidney / absolute + systemic / organ weight / kidney…
[13] = systemic / organ weight / heart / relative to body weight + systemic / organ weight / kidney / absolute + systemic / organ weight / kidney…
[14] = systemic / clinical chemistry / alkaline phosphatase (alp/alk) / alkaline phosphatase (alp/alk) + systemic / pathology microscopic / kidney…
[15] = systemic / clinical chemistry / alanine aminotransferase (alt/sgpt) / alanine aminotransferase (alt/sgpt) + systemic / clinical chemistry / …
[16] = group: developmental, developmental / developmental malformation / bone / enlarged fontanel + developmental / developmental malformation / bone / incomplete …
[17] = group: maternal, systemic / in life observation / body weight / body weight gain
[18] = group: maternal, systemic / in life observation / body weight / body weight gain + systemic / in life observation / body weight / body weight + systemic / in…
[19] = group: developmental, developmental / offspring survival late / lactation index / lactation index + developmental / offspring survival late / viability index / …
[20] = group: maternal, reproductive / offspring survival early / dead fetuses / dead fetuses
[21] = systemic / clinical chemistry / albumin / albumin + systemic / clinical chemistry / calcium / calcium + systemic / clinical chemistry / …
[22] = group: offspring, developmental / offspring survival late / viability index / viability index + systemic / in life observation / body weight / offspring (pup…
[23] = group: parental, systemic / in life observation / body weight / body weight gain + systemic / organ weight / liver / relative to body weight

## Cc1ccn2nc(S(=O)(=O)Nc3c(F)cccc3F)nc2n1 [Flumetsulam]
[1]; [11]
  NEL: 1000 mg/kg/day
  NOAEL: 1000 mg/kg/day
[1]; [12]
  LEL: 5000 mg/kg/day
  LOAEL: 5000 mg/kg/day
[2]; systemic / organ weight / heart / relative to body weight
  NEL: 500 mg/kg/day
[2]; [13]
  LEL: 1000 mg/kg/day
  LOAEL: > 1000 mg/kg/day
  NOAEL: ≥ 1000 mg/kg/day
[3]; [14]
  LOAEL: 500 mg/kg/day
  NEL: 20 mg/kg/day
  NOAEL: 100 mg/kg/day
[3]; systemic / organ weight / pituitary gland / relative to body weight
  LEL: 100 mg/kg/day
[4]
  LEL: 1000 mg/kg/day
  LOAEL: 1000 mg/kg/day
  NEL: 500 mg/kg/day
  NOAEL: 500 mg/kg/day
[5]; [15]
  LOAEL: 1000 mg/kg/day
  NOAEL: 250 mg/kg/day
[5]; systemic / hematology / erythrocyte (rbc) count differential / erythrocyte (rbc) + systemic / hematology / hemoglobin (hgb) / hemoglobin (…
  NEL: 2500 mg/kg/day

## CCNS(=O)(=O)C(F)(F)C(F)(F)C(F)(F)C(F)(F)C(F)(F)C(F)(F)C(F)(F)C(F)(F)F [Sulfluramid]
[6]; [16]
  LEL: 13.3 mg/kg/day
  LOAEL: 13.3 mg/kg/day
  NEL: 3.3 mg/kg/day
  NOAEL: 3.3 mg/kg/day
[6]; [17]
  LEL: 3.3 mg/kg/day
  LOAEL: 3.3 mg/kg/day
[6]; [18]
  NEL: 0.8 mg/kg/day
  NOAEL: 0.8 mg/kg/day
[7]
  LEL: 2.5 mg/kg/day
  LOAEL: 2.5 mg/kg/day
  NEL: 0.5 mg/kg/day
  NOAEL: 0.5 mg/kg/day
[8]; [19]
  LEL: 0.3 mg/kg/day
  LOAEL: 0.3 mg/kg/day
  NEL: < 0.3 mg/kg/day
  NOAEL: < 0.3 mg/kg/day
[8]; [20]
  LEL: 0.3 mg/kg/day
  LOAEL: 0.3 mg/kg/day
  NEL: < 0.3 mg/kg/day
  NOAEL: < 0.3 mg/kg/day
[9]; [21]
  LOAEL: > 23.2 mg/kg/day
  NOAEL: ≥ 23.2 mg/kg/day
[9]; systemic / organ weight / liver / relative to body weight + systemic / clinical chemistry / calcium / calcium
  LEL: 2.52 mg/kg/day
[10]; [22]
  LEL: 1.34 mg/kg/day
  LOAEL: 1.34 mg/kg/day
  NEL: 0.45 mg/kg/day
  NOAEL: 0.45 mg/kg/day
[10]; [23]
  LEL: 1.34 mg/kg/day
  LOAEL: 1.34 mg/kg/day
  NEL: 0.45 mg/kg/day
  NOAEL: 0.45 mg/kg/day

Reference: EPA's ToxRefDB 2
